Test results taken from patent publication US10329302B2, “Bicyclic-fused heteroaryl or aryl compounds” (Pfizer Inc., priority 2014, dated 2019).

What follows are molecules tested against human IRAK4 FL (Full Length) (Homo sapiens (Human), UniProt Q9NWZ3) (assay: IRAK4 Enzymatic DELFIA Assay, Protocol A). Conditions: not given.
Sequence of human IRAK4 FL (Full Length) (Q9NWZ3 whole entry): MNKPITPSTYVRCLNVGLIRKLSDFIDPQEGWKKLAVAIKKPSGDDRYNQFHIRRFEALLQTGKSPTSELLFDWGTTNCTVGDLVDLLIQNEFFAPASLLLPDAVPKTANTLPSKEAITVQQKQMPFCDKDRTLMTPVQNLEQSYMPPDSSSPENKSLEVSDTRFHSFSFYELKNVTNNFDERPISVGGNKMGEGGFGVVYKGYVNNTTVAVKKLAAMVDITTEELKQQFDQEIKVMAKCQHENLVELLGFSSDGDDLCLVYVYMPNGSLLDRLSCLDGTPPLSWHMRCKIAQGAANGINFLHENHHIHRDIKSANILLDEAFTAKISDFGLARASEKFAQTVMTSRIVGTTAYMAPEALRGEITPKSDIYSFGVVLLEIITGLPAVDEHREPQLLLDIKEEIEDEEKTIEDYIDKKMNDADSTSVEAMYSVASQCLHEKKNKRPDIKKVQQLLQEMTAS
Format: biochemical
`CC(C)Oc1cc2c(OC[C@@H]3CCC(=O)N3)ncc(CN)c2cc1C(N)=O` [Example 195, 4-(aminomethyl)-1-{[(2S)-5-oxopyrrolidin-2-yl]methoxy}-7-(propan-2-yloxy)isoquinoline-6-carboxamide] gave an IC50 of 3400 nM.

Same assay, conditions: human IRAK4 FL, 0.6 mM ATP (KM); read-out: IRAK4 DELFIA Protocol A IC50
`CC(C)Oc1cc2c(OC[C@@]3(CO)CCC(=O)N3)nccc2cc1C(N)=O` [Example 153, 1-{[(2S)-2-(hydroxymethyl)-5-oxopyrrolidin-2-yl]methoxy}-7-(propan-2-yloxy)isoquinoline-6-carboxamide] showed an IC50 of 1480 nM. In the case of `CC(C)Oc1cc2c(OC[C@]3(CO)CCC(=O)N3)nccc2cc1C(N)=O` [Example 154, 1-{[(2R)-2-(hydroxymethyl)-5-oxopyrrolidin-2-yl]methoxy}-7-(propan-2-yloxy)isoquinoline-6-carboxamide], the IC50 is reported as 17 nM. Molecule `CC(C)Oc1cc2c(OC[C@H]3NC(=O)C[C@@H]3C(F)(F)F)nccc2cc1C(N)=O` [Example 155, 1-{[(2S,3S)-5-oxo-3-(trifluoromethyl)pyrrolidin-2-yl]methoxy}-7-(propan-2-yloxy)isoquinoline-6-carboxamide] has an IC50 of 267 nM. Molecule `CC(C)Oc1cc2c(O[C@H](C)[C@@H]3CCC(=O)N3)nccc2cc1C(N)=O` [Example 156, 1-{(1R)-1-[(2S)-5-oxopyrrolidin-2-yl]ethoxy}-7-(propan-2-yloxy)isoquinoline-6-carboxamide] has an IC50 of 4100 nM. For `CC(C)Oc1cc2c(O[C@@H](C)[C@@H]3CCC(=O)N3)nccc2cc1C(N)=O` [Example 157, 1-{(1S)-1-[(2S)-5-oxopyrrolidin-2-yl]ethoxy}-7-(propan-2-yloxy)isoquinoline-6-carboxamide], the IC50 was 152 nM. In the case of `CC(C)Oc1cc2c(OC[C@@H]3C[C@H](CO)C(=O)N3)nccc2cc1C(N)=O` [Example 165, 1-{[(2S,4R)-4-(hydroxymethyl)-5-oxopyrrolidin-2-yl]methoxy}-7-(propan-2-yloxy)isoquinoline-6-carboxamide], the IC50 is reported as 541 nM. `CC(C)Oc1cc2c(OC[C@@H]3CCC(=O)N3)nccc2cc1C(=O)O` [Example 169, 1-{[(2S)-5-oxopyrrolidin-2-yl]methoxy}-7-(propan-2-yloxy)isoquinoline-6-carboxylic acid] showed an IC50 of 890 nM. Molecule `CC(C)Oc1cc2c(OC[C@@H]3C[C@@](F)(C(C)(C)O)C(=O)N3)nccc2cc1C(N)=O` [Example 171, 1-{[(2S,4R)-4-fluoro-4-(2-hydroxypropan-2-yl)-5-oxopyrrolidin-2-yl]methoxy}-7-(propan-2-yloxy)isoquinoline-6-carboxamide] has an IC50 of 101 nM. In the case of `CC(C)Oc1c(C(N)=O)cc2ccnc(OC[C@@H]3CCC(=O)N3)c2c1F` [Example 176, 8-fluoro-1-{[(2S)-5-oxopyrrolidin-2-yl]methoxy}-7-(propan-2-yloxy)isoquinoline-6-carboxamide], the IC50 is reported as 695 nM. With `NC(=O)c1cc2ccnc(OC[C@@H]3CCC(=O)N3)c2cc1OC(F)(F)F` [Example 178, 1-{[(2S)-5-oxopyrrolidin-2-yl]methoxy}-7-(trifluoromethoxy)isoquinoline-6-carboxamide] the IC50 was 1690 nM. `CC(C)Oc1cc2c(OC[C@@H]3C[C@@](O)(CC(F)(F)F)C(=O)N3)nccc2cc1C(N)=O` [Example 182, 1-{[(2S,4R)-4-hydroxy-5-oxo-4-(2,2,2-trifluoroethyl)pyrrolidin-2-yl]methoxy}-7-(propan-2-yloxy)isoquinoline-6-carboxamide] gave an IC50 of 1050 nM. Work on `CC(C)Oc1cc2c(OC[C@@H]3CN(C)C(=O)N3)nccc2cc1C(N)=O` [Example 185, 1-{[(4S)-1-methyl-2-oxoimidazolidin-4-yl]methoxy}-7-(propan-2-yloxy)isoquinoline-6-carboxamide] yielded an IC50 of 116 nM. `CC(C)Oc1cc2c(O[C@@H]3CCC[C@]34CCC(=O)N4)nccc2cc1C(N)=O` [Example 186, 1-{[(5S,6R)-2-oxo-1-azaspiro[4.4]non-6-yl]oxy}-7-(propan-2-yloxy)isoquinoline-6-carboxamide] was tested, and the IC50 was 303 nM. `CC(C)Oc1cc2c(OC[C@@H]3CCC(=O)N3)ncc(C#N)c2cc1C(N)=O` [Example 190, 4-cyano-1-{[(2S)-5-oxopyrrolidin-2-yl]methoxy}-7-(propan-2-yloxy)isoquinoline-6-carboxamide] was tested, and the IC50 was 294 nM. In the case of `CC(C)Oc1cc2c(OC[C@@H]3C[C@H](C4(O)COC4)C(=O)N3)nccc2cc1C(N)=O` [Example 192, 1-{[(2S,4R)-4-(3-hydroxyoxetan-3-yl)-5-oxopyrrolidin-2-yl]methoxy}-7-(propan-2-yloxy)isoquinoline-6-carboxamide], the IC50 is reported as 284 nM. `CC(C)Oc1cc2c(OC[C@@H]3C[C@@H](C4(O)COC4)C(=O)N3)nccc2cc1C(N)=O` [Example 193, 1-{[(2S,4S)-4-(3-hydroxyoxetan-3-yl)-5-oxopyrrolidin-2-yl]methoxy}-7-(propan-2-yloxy)isoquinoline-6-carboxamide] was tested, and the IC50 was 238 nM. For `NC(=O)c1cc2ccnc(OC[C@@H]3CCC(=O)N3)c2cc1OC1COC1` [Example 199, 7-(oxetan-3-yloxy)-1-{[(2S)-5-oxopyrrolidin-2-yl]methoxy}isoquinoline-6-carboxamide], the IC50 was 2900 nM. With `CC(C)(C)Oc1cc2c(OC[C@@H]3CCC(=O)N3)nccc2cc1C(N)=O` [Example 200, 7-tert-butoxy-1-{[(2S)-5-oxopyrrolidin-2-yl]methoxy}isoquinoline-6-carboxamide] the IC50 was 697 nM. With `NC(=O)c1cc2ccnc(OC[C@@H]3CCC(=O)N3)c2cc1OCC1CC1` [Example 204, 7-(cyclopropylmethoxy)-1-{[(2S)-5-oxopyrrolidin-2-yl]methoxy}isoquinoline-6-carboxamide] the IC50 was 2060 nM. With `COc1cc2c(OC[C@H]3NC(=O)[C@@](F)(CO)[C@H]3C)nccc2cc1C(N)=O` [Example 210, 1-{[(2S,3S,4S)-4-fluoro-4-(hydroxymethyl)-3-methyl-5-oxopyrrolidin-2-yl]methoxy}-7-methoxyisoquinoline-6-carboxamide] the IC50 was 3470 nM. For `CC(C)Oc1cc2c(OC[C@H]3NC(=O)C[C@@H]3CO)nccc2cc1C(N)=O` [Example 212, 1-{[(2S,3S)-3-(hydroxymethyl)-5-oxopyrrolidin-2-yl]methoxy}-7-(propan-2-yloxy)isoquinoline-6-carboxamide], the IC50 was 150 nM. Work on `CC(C)Oc1cc2c(OC[C@H]3NC(=O)[C@@H]4CN(C)C[C@H]34)nccc2cc1C(N)=O` [Example 213, 1-{[(1S,3aS,6aR)-5-methyl-3-oxooctahydropyrrolo[3,4-c]pyrrol-1-yl]methoxy}-7-(propan-2-yloxy)isoquinoline-6-carboxamide] yielded an IC50 of 1420 nM. For `COc1cc2c(OC[C@H]3NC(=O)C[C@@H]3CO)nccc2cc1C(N)=O` [Example 214, 1-{[(2S,3S)-3-(hydroxymethyl)-5-oxopyrrolidin-2-yl]methoxy}-7-methoxyisoquinoline-6-carboxamide], the IC50 was 215 nM. `COc1cc2c(OC[C@H]3NC(=O)CC3(C)C)nccc2cc1C(N)=O` [Example 221, 1-{[(2S)-3,3-dimethyl-5-oxopyrrolidin-2-yl]methoxy}-7-methoxyisoquinoline-6-carboxamide] showed an IC50 of 54 nM. With `COc1cc2c(OC[C@@H]3C[C@H](CC#N)C(=O)N3)nccc2cc1C(N)=O` [Example 224, 1-{[(2S,4R)-4-(cyanomethyl)-5-oxopyrrolidin-2-yl]methoxy}-7-methoxyisoquinoline-6-carboxamide] the IC50 was 1170 nM. Work on `CC(C)Oc1cc2c(OC[C@H]3NC(=O)[C@@H]4CNC[C@H]34)nccc2cc1C(N)=O` [Example 226, 1-{[(1S,3aS,6aR)-3-oxooctahydropyrrolo[3,4-c]pyrrol-1-yl]methoxy}-7-(propan-2-yloxy)isoquinoline-6-carboxamide] yielded an IC50 of 222 nM. `COc1cc2c(OC[C@H]3CN(C)C(=O)O3)nccc2cc1C(N)=O` [Example 239, 7-methoxy-1-{[(5R)-3-methyl-2-oxo-1,3-oxazolidin-5-yl]methoxy}isoquinoline-6-carboxamide] gave an IC50 of 1180 nM. `COc1cc2c(OC[C@H]3NC(=O)[C@@H](C)[C@@H]3CF)nccc2cc1C(N)=O` [Example 254, 1-{[(2S,3S,4S)-3-(fluoromethyl)-4-methyl-5-oxopyrrolidin-2-yl]methoxy}-7-methoxyisoquinoline-6-carboxamide] showed an IC50 of 2950 nM. Work on `COc1cc2c(OC[C@@H]3C[C@](F)(CF)C(=O)N3)nccc2cc1C(N)=O` [Example 261, 1-{[(2S,4R)-4-fluoro-4-(fluoromethyl)-5-oxopyrrolidin-2-yl]methoxy}-7-methoxyisoquinoline-6-carboxamide] yielded an IC50 of 671 nM. For `COc1cc2c(OCC3(C)COCC(=O)N3)nccc2cc1C(N)=O` (stereo not drawn) [Example 265, 7-methoxy-1-[(3-methyl-5-oxomorpholin-3-yl)methoxy]isoquinoline-6-carboxamide], the IC50 was 1540 nM. For `COc1cc2c(OC[C@@H]3C[C@H](CC(F)(F)F)C(=O)N3)nccc2cc1C(N)=O` [Example 270, 7-methoxy-1-{[(2S,4R)-5-oxo-4-(2,2,2-trifluoroethyl)pyrrolidin-2-yl]methoxy}isoquinoline-6-carboxamide], the IC50 was 290 nM. For `CCOc1cc2c(OC[C@H]3NC(=O)[C@@H]4C[C@H]34)ccnc2cc1C(N)=O` [Example 280, 6-ethoxy-4-{[(1S,2S,5R)-4-oxo-3-azabicyclo[3.1.0]hex-2-yl]methoxy}quinoline-7-carboxamide], the IC50 was 3790 nM. `COc1cc2c(OC[C@H]3NC(=O)[C@@H]4[C@@H](C)[C@@H]43)c(Cl)cnc2cc1C(N)=O` [Example 321, 3-chloro-6-methoxy-4-{[(1S,2S,5R)-6-methyl-4-oxo-3-azabicyclo[3.1.0]hex-2-yl]methoxy}quinoline-7-carboxamide] showed an IC50 of 4190 nM. `COc1cc2c(OC[C@H]3NC(=O)[C@@H]4[C@H](CO)[C@@H]43)nccc2cc1C(N)=O` [Example 328, 1-{[(1S,2S,5S)-6-(hydroxymethyl)-4-oxo-3-azabicyclo[3.1.0]hex-2-yl]methoxy}-7-methoxyisoquinoline-6-carboxamide] gave an IC50 of 93 nM. For `COc1cc2c(O[C@@H](C)[C@@H]3CCC(=O)N3)nccc2cc1C(N)=O` [Example 354, 7-methoxy-1-{(1S)-1-[(2S)-5-oxopyrrolidin-2-yl]ethoxy}isoquinoline-6-carboxamide], the IC50 was 2890 nM.
